What follows are molecules tested against HCV RdRp (NS5B) (UniProt P26663).
HCV RdRp (NS5B), sequence (P26663 whole entry, looked up): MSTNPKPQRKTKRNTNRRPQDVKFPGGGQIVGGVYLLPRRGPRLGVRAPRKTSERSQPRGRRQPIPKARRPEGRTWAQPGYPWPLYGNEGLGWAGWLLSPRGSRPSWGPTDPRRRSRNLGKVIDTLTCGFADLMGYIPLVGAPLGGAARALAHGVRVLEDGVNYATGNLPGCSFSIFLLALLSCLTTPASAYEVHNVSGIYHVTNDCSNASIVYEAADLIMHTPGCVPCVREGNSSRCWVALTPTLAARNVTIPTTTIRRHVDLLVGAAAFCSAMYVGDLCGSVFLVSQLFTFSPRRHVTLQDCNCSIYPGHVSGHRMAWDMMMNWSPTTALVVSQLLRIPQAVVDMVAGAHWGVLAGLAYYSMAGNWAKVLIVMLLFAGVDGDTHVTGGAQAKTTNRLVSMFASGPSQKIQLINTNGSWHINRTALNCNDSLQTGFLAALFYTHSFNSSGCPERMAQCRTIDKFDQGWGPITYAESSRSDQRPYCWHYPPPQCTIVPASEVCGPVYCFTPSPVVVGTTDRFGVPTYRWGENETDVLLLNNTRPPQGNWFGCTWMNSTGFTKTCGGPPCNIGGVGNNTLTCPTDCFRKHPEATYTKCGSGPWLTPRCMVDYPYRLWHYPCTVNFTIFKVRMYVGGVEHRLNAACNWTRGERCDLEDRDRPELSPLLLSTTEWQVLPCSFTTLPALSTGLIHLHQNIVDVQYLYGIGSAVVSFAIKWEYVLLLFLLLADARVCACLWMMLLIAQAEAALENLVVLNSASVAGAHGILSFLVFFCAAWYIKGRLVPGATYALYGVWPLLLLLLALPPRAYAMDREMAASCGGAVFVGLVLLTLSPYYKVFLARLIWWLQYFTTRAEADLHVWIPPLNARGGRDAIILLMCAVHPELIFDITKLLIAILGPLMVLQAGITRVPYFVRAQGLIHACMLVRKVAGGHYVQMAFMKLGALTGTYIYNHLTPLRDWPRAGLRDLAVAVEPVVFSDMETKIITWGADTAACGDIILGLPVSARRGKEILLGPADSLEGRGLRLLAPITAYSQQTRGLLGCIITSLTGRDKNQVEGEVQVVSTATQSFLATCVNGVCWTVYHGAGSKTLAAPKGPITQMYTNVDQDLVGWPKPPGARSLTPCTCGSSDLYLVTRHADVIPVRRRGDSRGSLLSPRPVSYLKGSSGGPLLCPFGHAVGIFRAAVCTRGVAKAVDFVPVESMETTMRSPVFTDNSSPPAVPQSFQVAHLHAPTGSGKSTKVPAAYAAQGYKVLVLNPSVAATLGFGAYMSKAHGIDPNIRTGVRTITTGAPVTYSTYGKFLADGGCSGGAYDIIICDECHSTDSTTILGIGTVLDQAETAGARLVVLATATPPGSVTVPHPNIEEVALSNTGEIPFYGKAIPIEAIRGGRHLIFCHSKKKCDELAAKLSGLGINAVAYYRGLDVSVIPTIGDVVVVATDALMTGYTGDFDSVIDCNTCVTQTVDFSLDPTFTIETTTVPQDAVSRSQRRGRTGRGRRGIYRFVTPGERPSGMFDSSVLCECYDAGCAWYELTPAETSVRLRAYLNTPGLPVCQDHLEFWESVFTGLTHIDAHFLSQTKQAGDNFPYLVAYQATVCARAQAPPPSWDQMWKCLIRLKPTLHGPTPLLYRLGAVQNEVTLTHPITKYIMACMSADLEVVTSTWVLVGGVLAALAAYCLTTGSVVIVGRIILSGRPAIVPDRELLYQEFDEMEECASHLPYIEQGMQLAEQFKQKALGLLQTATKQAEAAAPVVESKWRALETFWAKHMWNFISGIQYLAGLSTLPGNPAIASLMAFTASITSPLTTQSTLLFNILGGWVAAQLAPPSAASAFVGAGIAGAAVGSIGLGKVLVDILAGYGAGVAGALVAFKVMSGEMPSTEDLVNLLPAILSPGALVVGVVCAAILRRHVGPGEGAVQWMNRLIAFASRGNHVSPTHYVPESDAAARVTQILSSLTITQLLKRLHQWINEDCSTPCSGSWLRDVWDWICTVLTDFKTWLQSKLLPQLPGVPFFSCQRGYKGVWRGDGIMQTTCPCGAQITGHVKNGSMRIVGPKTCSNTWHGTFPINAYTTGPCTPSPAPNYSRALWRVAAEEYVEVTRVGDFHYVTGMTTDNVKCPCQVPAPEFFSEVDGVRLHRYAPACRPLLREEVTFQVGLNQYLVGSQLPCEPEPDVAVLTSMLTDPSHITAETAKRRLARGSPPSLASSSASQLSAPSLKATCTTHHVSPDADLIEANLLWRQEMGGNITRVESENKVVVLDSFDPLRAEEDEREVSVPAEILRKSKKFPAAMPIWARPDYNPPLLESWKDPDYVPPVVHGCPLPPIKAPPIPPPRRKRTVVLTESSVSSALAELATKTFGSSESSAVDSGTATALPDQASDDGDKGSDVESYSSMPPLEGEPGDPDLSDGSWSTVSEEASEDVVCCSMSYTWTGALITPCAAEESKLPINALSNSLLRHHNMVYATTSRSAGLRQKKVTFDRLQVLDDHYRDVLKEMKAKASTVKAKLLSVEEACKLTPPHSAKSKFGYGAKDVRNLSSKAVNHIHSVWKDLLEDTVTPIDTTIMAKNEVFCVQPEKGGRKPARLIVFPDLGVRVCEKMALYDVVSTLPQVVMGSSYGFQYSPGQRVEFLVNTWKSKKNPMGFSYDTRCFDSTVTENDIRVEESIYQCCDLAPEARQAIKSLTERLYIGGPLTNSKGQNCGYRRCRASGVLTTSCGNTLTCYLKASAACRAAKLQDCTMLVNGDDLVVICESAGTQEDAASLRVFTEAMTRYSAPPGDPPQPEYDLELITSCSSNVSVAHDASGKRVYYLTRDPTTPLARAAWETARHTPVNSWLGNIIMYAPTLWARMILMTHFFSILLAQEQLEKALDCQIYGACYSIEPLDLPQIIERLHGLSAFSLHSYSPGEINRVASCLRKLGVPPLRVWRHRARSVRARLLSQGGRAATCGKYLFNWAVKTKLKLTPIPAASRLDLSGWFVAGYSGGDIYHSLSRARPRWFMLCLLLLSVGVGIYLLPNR
Assay type: biochemical, hepatitis C virus
`CC[C@H](NC(=O)OCC1c2ccccc2-c2ccccc21)C(=O)Nc1ccc(CN(C(=O)c2ccco2)C2CCCCC2)cc1` [Compound 28, (S)-[1-(4-{[CYCLOHEXYL-(FURAN-2-CARBONYL)-AMINO]-METHYL}-PHENYLCARBAMOYL)-PROPYL]-CARBAMIC ACID 9H-FLUOREN-9-YLMETHYL ESTER] was tested, and the IC50 was greater than 50 µM.
`Cc1ccc(NC(=O)[C@H](CCCCN)NS(=O)(=O)c2ccc(Cl)c(Cl)c2)cc1` [Compound 392, (S)-6-AMINO-2-(3,4-DICHLORO-BENZENESULFONYLAMINO)-HEXANOIC ACID P-TOLYLAMIDIE] gave an IC50 greater than 50 µM.
`Cc1ccc(NCC(=O)N[C@@H](CCCCN)C(=O)Nc2ccc(C)cc2)cc1` [Compound 356, (S)-6-AMINO-2-(2-P-TOLYLAMINO-ACETYLAMINO)-HEXANOIC ACID P-TOLYLAMIDE] gave an IC50 greater than 50 µM.
`CC(C)(C)c1ccc(NC(=O)[C@H](Cc2ccc(CN)cc2)NC(=O)NC(c2ccccc2)c2ccccc2)cc1` [Compound 151, (S)-3-(4-AMINOMETHYL-PHENYL)-2-(3-BENZHYDRYL-UREIDO)-N-(4-TERT-BUTYL-PHENYL)-PROPIONAMIDE] gave an IC50 of less than 10 µM.
Molecule `Cc1cccc(NC(=O)[C@H](CCCCN)NC(=O)OCC2c3ccccc3-c3ccccc32)c1` [Compound 47, (S)-(5-AMINO-1-M-TOLYLCARBAMOYL-PENTYL)-CARBAMIC ACID 9H-FLUOREN-9-YLMETHYL ESTER] has an IC50 greater than 50 µM.
In the case of `Cc1ccc(NC(=O)[C@H](CCCCN)NC(=O)CNc2ccc3c(c2)CCC3)cc1` [Compound 369, (S)-6-AMINO-2-[2-(INDAN-5-YLAMINO)-ACETYLAMINO]-HEXANOIC ACID P-TOLYLAMIDE], the IC50 is reported as greater than 50 µM.
For `N[C@@H](CCNC(=O)OCC1c2ccccc2-c2ccccc21)C(=O)Nc1ccc(CN(C(=O)c2ccco2)C2CCCCC2)cc1` [Compound 14, (S)-[3-AMINO-3-(4-{[CYCLOHEXYL-(FURAN-2-CARBONYL)-AMINO]-METHYL}-PHENYLCARBAMOYL)-PROPYL]-CARBAMIC ACID 9H-FLUOREN-9-YLMETHYL ESTER], the IC50 was 10 to 50 µM.
Work on `Cc1ccc(NC(=O)C(CC(=O)O)NC(=O)OCC2c3ccccc3-c3ccccc32)cc1` [Compound 370, (S)-3-(9H-FLUOREN-9-YLMETHOXYCARBONYLAMINO)-NR-P-TOLYL-[…]] yielded an IC50 greater than 50 µM.
With `NCCCC[C@H](NC(=O)OCC1c2ccccc2-c2ccccc21)C(=O)Nc1ccc2c(c1)CCC2` [Compound 81, (S)-[5-AMINO-1-(INDAN-5-YLCARBAMOYL)-PENTYL]-CARBAMIC ACID 9H-FLUOREN-9-YLMETHYL ESTER] the IC50 was 10 to 50 µM.
`Cc1ccc(NC(=O)[C@H](CCCCN)NC(=O)COc2ccc(Oc3ccccc3)cc2)cc1` [Compound 333, (S)-6-AMINO-2-[2-(4-PHENOXY-PHENOXY)-ACETYLAMINO]-HEXANOIC ACID P-TOLYLAMIDE] gave an IC50 greater than 50 µM.
For `Cc1ccc(NC(=O)C(CCCN)NC(=O)Nc2ccc(-c3ccccc3)cc2)cc1` [Compound 191, (R)-5-AMINO-2-(3-BIPHENYL-4-YL-UREIDO)-PENTANOIC ACID P-TOLYLAMIDE], the IC50 was greater than 50 µM.
In the case of `O=C(N[C@@H](Cc1ccccc1)C(=O)Nc1ccc(CN(C(=O)c2ccco2)C2CCCCC2)cc1)OCC1c2ccccc2-c2ccccc21` [Compound 29, (S)-[1-(4-{[CYCLOHEXYL-(FURAN-2-CARBONYL)-AMINO]-METHYL}-PHENYL CARBAMOYL)-2-PHENYL-ETHYL]-CARBAMIC ACID 9H-FLUOREN-9-YLMETHYL ESTER], the IC50 is reported as greater than 50 µM.
Molecule `NCCC[C@@H](NC(=O)Nc1ccc2c(c1)Cc1ccccc1-2)C(=O)Nc1ccc(C2CCCCC2)cc1` [Compound 203, (R)-5-AMINO-2-[3-(9H-FLUOREN-2-YL)-UREIDO]-PENTANOIC ACID (4-CYCLOHEXYL-PHENYL)-AMIDE] has an IC50 of less than 10 µM.
In the case of `Cc1ccc(NC(=O)[C@H](CCCCN)NS(=O)(=O)c2ccccc2)cc1` [Compound 387, (S)-6-AMINO-2-BENZENESULFONYLAMINO-HEXANOIC ACID P-TOLYLAMIDE], the IC50 is reported as greater than 50 µM.
`Cc1ccc(NC(=O)C2(NC(=O)OCC3c4ccccc4-c4ccccc43)CCNCC2)cc1` [Compound 138, (4-P-TOLYLCARBAMOYL-PIPERIDIN-4-YL)-CARBAMIC ACID 9H-FLUOREN-9-YLMETHYL ESTER] showed an IC50 greater than 50 µM.
With `Cc1ccc(NC(=O)C(CCO)NC(=O)OCC2c3ccccc3-c3ccccc32)cc1` [Compound 374, (S)-(3-HYDROXY-1-P-TOLYLCARBAMOYL-PROPYL)-CARBAMIC ACID 9H-FLUOREN-9-YLMETHYL ESTER] the IC50 was greater than 50 µM.
`Cc1ccc(NC(=O)C(CCCCN)NS(=O)(=O)c2cc(S(=O)(=O)c3ccccc3)cs2)cc1` [Compound 388, (S)-6-AMINO-2-(4-BENZENESULFONYL-THIOPHENE-2-SULFONYLAMINO)-HEXANOIC ACID P-TOLYLAMIDE] gave an IC50 greater than 50 µM.
For `Cc1ccc(NC(=O)[C@H](CCCN)NC(=O)Nc2ccc(OCc3ccccc3)cc2)cc1` [Compound 189, (S)-5-AMINO-2-[3-(4-BENZYLOXY-PHENYL)-UREIDO]-PENTANOIC ACID P-TOLYLAMIDE], the IC50 was greater than 50 µM.
`NC(Cc1ccccc1)C(=O)Nc1ccc(CN(C(=O)c2ccco2)C2CCCCC2)cc1` (stereo in doubt) [Compound 11, (R)-FURAN-2-CARBOXYLIC ACID [4-(2-AMINO-3-PHENYL-PROPIONYLAMINO)-BENZYL]-CYCLOHEXYL-AMIDE] gave an IC50 greater than 50 µM.
Work on `COc1ccccc1NCC(=O)N[C@@H](CCCCN)C(=O)Nc1ccc(C)cc1` [Compound 357, (S)-6-AMINO-2-[2-(2-METHOXY-PHENYLAMINO)-ACETYLAMINO]-HEXANOIC ACID P-TOLYLAMIDE] yielded an IC50 greater than 50 µM.
Molecule `O=C(CC1CNCCN1C(=O)Nc1ccc(-c2ccccc2)cc1)Nc1ccc(C2CCCCC2)cc1` (stereo not drawn) [Compound 161, 2-[(4-CYCLOHEXYL-PHENYLCARBAMOYL)-METHYL]-PIPERAZINE-1-CARBOXYLIC ACID BIPHENYL-4-YLAMIDE] has an IC50 of 10 to 50 µM.
For `NCCCC[C@H](NC(=O)OCC1c2ccccc2-c2ccccc21)C(=O)Nc1ccc(CN(C(=O)c2ccco2)C2CCCCC2)cc1` [Compound 6, (S)-[5-AMINO-1-(4-{[CYCLOHEXYL-(FURAN-2-CARBONYL)-AMINO]-METHYL}-PHENYLCARBAMOYL)-PENTYL]-CARBAMIC ACID 9H-FLUOREN-9-YL METHYL ESTER], the IC50 was less than 10 µM.
With `CC(C)(C)Oc1ccc(C[C@H](N)C(=O)Nc2ccc(CN(C(=O)c3ccco3)C3CCCCC3)cc2)cc1` [Compound 8, (S)-FURAN-2-CARBOXYLIC ACID {4-[2-AMINO-3-(4-TERT-BUTOXY-PHENYL)-PROPIONYLAMINO]-BENZYL}-CYCLOHEXYL-AMIDE] the IC50 was greater than 50 µM.
With `Cc1ccc(NC(=O)C(CCNC(=O)CCN)NC(=O)OCC2c3ccccc3-c3ccccc32)cc1` [Compound 179, (S)-[3-(3-AMINO-PROPIONYLAMINO)-1-P-TOLYLCARBAMOYL-PROPYL]-CARBAMIC ACID 9H-FLUOREN-9-YLMETHYL ESTER] the IC50 was 10 to 50 µM.
In the case of `Cc1ccc(NC(=O)C(CCCCN)NC(=O)NCc2ccccc2)cc1` [Compound 133, (S)-6-AMINO-2-(3-BENZYL-UREIDO)-HEXANOIC ACID P-TOLYLAMIDE], the IC50 is reported as greater than 50 µM.
Work on `Cc1ccc(NC(=O)C(CCCCN)NC(=O)C2c3ccccc3-c3ccccc32)cc1` [Compound 52, (S)-9H-FLUORENE-9-CARBOXYLIC ACID (5-AMINO-1-P-TOLYLCARBAMOYL-PENTYL)-AMIDE] yielded an IC50 greater than 50 µM.
Work on `Cc1ccc(NC(=O)[C@H](CCCCO)NC(=O)Nc2ccc(OCc3ccccc3)cc2)cc1` [Compound 309, (S)-2-[3-(4-BENZYLOXY-PHENYL)-UREIDO]-6-HYDROXY-HEXANOIC ACID P-TOLYLAMIDE] yielded an IC50 greater than 50 µM.
`Cc1ccc(NC(=O)[C@H](CCCCN)NC(=O)Nc2ccc(OCc3cccc(F)c3F)cc2)cc1` [Compound 284, (S)-6-AMINO-2-{3-[4-(2,3-DIFLUORO-BENZYLOXY)-PHENYL]-UREIDO}-HEXANOIC ACID P-TOLYLAMIDE] showed an IC50 of 10 to 50 µM.
For `Cc1ccc(NC(=O)[C@H](CCCCN)NC(=O)NC2c3ccccc3-c3ccccc32)cc1` [Compound 126, (S)-6-AMINO-2-[3-(9H-FLUOREN-9-YL)-UREIDO]-HEXANOIC ACID P-TOLYLAMIDE], the IC50 was less than 10 µM.
`Cc1ccc(NC(=O)C(CCCCN)NC(=O)c2ccc3ccccc3c2)cc1` [Compound 51, (S)-NAPHTHALENE-2-CARBOXYLIC ACID (5-AMINO-1-P-TOLYLCARBAMOYL-PENTYL)-AMIDE] was tested, and the IC50 was greater than 50 µM.
`Cc1ccc(NC(=O)[C@H](CCCCN)NC(=O)COc2ccc(F)cc2)cc1` [Compound 329, (S)-6-AMINO-2-[^2-(^4-FLUORO-PHENOXY)-ACETYLAMINO]-HEXANOIC ACID P-TOLYLAMIDE] was tested, and the IC50 was greater than 50 µM.
Work on `NCCCCCCNC(=O)C(NC(=O)Nc1ccc(OCc2ccccc2)cc1)c1ccccc1` [Compound 320, (R)-NR-(6-AMINO-HEXYL)-2-[3-(4-BENZYLOXY-PHENYL)-UREIDO]-2-PHENYL-ACETAMIDE] yielded an IC50 of less than 10 µM.
Molecule `Cc1ccc(NC(=O)[C@H](CCCCN)NC(=O)OCC2c3ccccc3-c3ccccc32)cc1C` [Compound 216, (S)-[5-AMINO-1-(3,4-DIMETHYL-PHENYLCARBAMOYL)-PENTYL]-CARBAMIC ACID 9H-FLUOREN-9-YLMETHYL ESTER] has an IC50 of 10 to 50 µM.
For `NCCCCC(NC(=O)OCC1c2ccccc2-c2ccccc21)C(=O)Nc1ccccc1` (stereo in doubt) [Compound 19, (S)-(5-AMINO-1-PHENYLCARBAMOYL-PENTYL)-CARBAMIC ACID 9H-FLUOREN-9-YLMETHYL ESTER], the IC50 was greater than 50 µM.
Molecule `CC(C)NC(=O)[C@H](CCCCN)NC(=O)Nc1ccc(OCc2ccccc2)cc1` [Compound 291, (S)-6-AMINO-2-[3-(4-BENZYLOXY-PHENYL)-UREIDO]-HEXANOIC ACID ISOPROPYLAMIDE] has an IC50 greater than 50 µM.
`Cc1ccc(NC(=O)C(CCCCN)NC(=O)Nc2ccc(-c3ccccc3)cc2)cc1` [Compound 40, (S)-6-AMINO-2-(3-BIPHENYL-4-YL-UREIDO)-HEXANOIC ACID P-TOLYLAMIDE] was tested, and the IC50 was 10 to 50 µM.
In the case of `CC(C)(C)OC(=O)NCCCC[C@H](N)C(=O)N(Cc1ccccc1)C1CCCCC1` [Compound 34, (S)-[5-AMINO-5-(BENZYL-CYCLOHEXYL-CARBAMOYL)-PENTYL]-CARBAMIC ACID TERT-BUTYL ESTER], the IC50 is reported as 10 to 50 µM.
For `Cc1ccc(NC(=O)[C@H](CCCCN)NC(=O)CNCCc2ccccc2)cc1` [Compound 334, (S)-6-AMINO-2-(2-PHENETHYLAMINO-ACETYLAMINO)-HEXANOIC ACID P-TOLYLAMIDE], the IC50 was greater than 50 µM.
Work on `COc1ccc2cc(C(=O)NC(CCCCN)C(=O)Nc3ccc(C)cc3)ccc2c1` [Compound 66, (S)-6-METHOXY-NAPHTHALENE-2-CARBOXYLIC ACID (5-AMINO-1-P-TOLYLCARBAMOYL-PENTYL)-AMIDE] yielded an IC50 greater than 50 µM.
